The values that follow come from publication PMC12040169 (PLOS Biology, 2025).

As usually defined, the viability is a read-out of living cells in per cent, often relative to untreated cells.

A short description of the series: in vitro. The settings on record: human, hela cells, % viability.
With `c1coc(CNc2ncc(-c3ccc4c(c3)OCO4)c(-c3cccs3)n2)c1` [CBK286414], the viability at 28.5 h, 10 µM was 93.9%.

Regarding `Cc1nc(NC(=O)c2ccoc2)sc1C` [CBK296729], the viability at 28.5 h, 10 µM is 103%.

Consider `O=C(NC(c1ccc(Cl)cc1)c1cccnc1)C1CCN(C(=O)C2CC2)CC1` (stereo not drawn) [CBK059686], for which the viability at 28.5 h, 10 µM was found to be 90.4%.

As to `CCOc1cc(C)c(Cl)cc1S(=O)(=O)NCc1ccccn1` [CBK268047], the viability at 28.5 h, 10 µM turned out to be 108%.

For `O=C(Cn1cc(C(=O)Nc2ccc(F)cc2)ccc1=O)Nc1nc2c(s1)CCCCC2` [CBK286080], the viability at 28.5 h, 10 µM is 99.3%.

`Cc1ccc(S(=O)(=O)NCCc2ccccn2)s1` [CBK269223]: the viability at 28.5 h, 10 µM came out at 102%.

On to `O=C(c1cnn2cccnc12)N1CCc2[nH]c3ccccc3c2C1` [CBK281874], for which the viability at 28.5 h, 10 µM turned out to be 93%.

Turning to `O=C(NCCCc1ccccn1)c1cc(C2CCCCC2)no1` [CBK283296], the viability at 28.5 h, 10 µM is 89.4%.

In the case of `CSc1ccc(-c2cn3ccnc3c(NCCc3ccncc3)n2)cc1` [CBK066479], the viability at 28.5 h, 10 µM is 102%.

Turning to `N=C(N)SCC1CNC(=N)S1` (stereo not drawn) [CBK260991], the viability at 28.5 h, 10 µM was determined as 99.3%.

With `Cc1ccc(CSCCNS(=O)(=O)c2ccc([N+](=O)[O-])cc2)cc1` [CBK268496], the viability at 28.5 h, 10 µM is 108%.

For `COc1ccc(C2C(C(=O)Nc3ccccc3)=C(C)Nc3ncnn32)cc1` (stereo not drawn) [CBK287353], the viability at 28.5 h, 10 µM turned out to be 103%.

For the molecule `CC(C)c1ccc(CN2CCN(c3nccnc3NS(C)(=O)=O)CC2)cc1` [CBK084271], the viability at 28.5 h, 10 µM worked out at 91%.

As to `COC(C(=O)NCc1sc(-c2ccccc2)nc1C)c1ccccc1` (stereo not drawn) [CBK092362], the viability at 28.5 h, 10 µM came out at 93.1%.

In the case of `CC(O)CNCCNc1c(Cl)cccc1[N+](=O)[O-]` (stereo not drawn) [CBK262802C], the viability at 28.5 h, 10 µM was found to be 98.8%.

For the molecule `Cc1ccc(-c2csc(NC(=O)c3ccc(F)cc3)n2)cc1` [CBK095107], the viability at 28.5 h, 10 µM came out at 85.2%.

On to `O=C(O)c1cccc(NS(=O)(=O)c2ccc3c(c2)CN(C(=O)C(F)(F)F)CC3)c1` [CBK155709], for which the viability at 28.5 h, 10 µM stood at 92.2%.

Regarding `Cc1cc(NS(=O)(=O)c2ccc(NC(=S)NCC3CCCO3)cc2)no1` (stereo not drawn) [CBK268160], the viability at 28.5 h, 10 µM was found to be 101%.

`Cc1cc2nccc(C3CCCN(C(=O)OC(C)(C)C)C3)n2n1` (stereo not drawn) [CBK284037]: the viability at 28.5 h, 10 µM was 90.8%.

With `COCCn1c(SCCC(=O)O)nc2c1c(=O)[nH]c(=O)n2C` [CBK139751], the viability at 28.5 h, 10 µM is 82%.

`CCOC(=O)N1CCC(NS(=O)(=O)c2ccc(C)c([N+](=O)[O-])c2)CC1` [CBK045468]: the viability at 28.5 h, 10 µM was 85.8%.

For the molecule `O=C(O)c1ccc(COc2cccc(/C=N\O)c2)cc1` [CBK288501], the viability at 28.5 h, 10 µM is 91.9%.

Consider `Cc1ccc(Cl)cc1NC(=O)c1cc(NC(=O)C2CCCCC2C(=O)O)ccc1N1CCCCC1` (stereo not drawn) [CBK268371], for which the viability at 28.5 h, 10 µM came out at 87%.

Take `O=C(COc1cccc(Br)c1)Nc1nnc[nH]1` [CBK264063]: the viability at 28.5 h, 10 µM is 94.1%.

Turning to `CCc1nc2c(N3CCC(n4nc(C)cc4C)C3)ncnc2o1` (stereo not drawn) [CBK306785], the viability at 28.5 h, 10 µM is 111%.

Consider `CC(C)C(=O)N1CCC[C@@H](Cn2nc(-c3cccs3)ccc2=O)C1` [CBK282317], for which the viability at 28.5 h, 10 µM came out at 96.5%.

Consider `N=C1/C(=C/c2ccc(-c3cccc([N+](=O)[O-])c3)o2)C(=O)N=C2SC(SCc3ccccc3)=NN12` [CBK265354], for which the viability at 28.5 h, 10 µM came out at 88.5%.

Consider `CC(C)NC(=O)C[C@@H]1c2nc(-c3ccccc3)sc2C[C@@H]2[C@](C)(CO)[C@H](O)CC[C@]21C` [CBK289570], for which the viability at 28.5 h, 10 µM turned out to be 90.6%.

Turning to `O=C(c1cnc(-c2ccccc2)c(-c2cccnc2)c1)N1CCC(S(=O)(=O)c2ccccc2)C1` (stereo not drawn) [CBK036685], the viability at 28.5 h, 10 µM came out at 103%.

`O=C(O)C(Cc1ccccc1)Nc1ncnc2sc3c(c12)CCC3` (stereo not drawn) [CBK265266]: the viability at 28.5 h, 10 µM worked out at 90.2%.

Turning to `Cc1nn(CCNC(=O)C2CC3C=CC2C32CC2)c(C)c1Cl` (stereo not drawn) [CBK281429], the viability at 28.5 h, 10 µM stood at 90.8%.

`N#Cc1cccc(S(=O)(=O)Nc2cccc(C(=O)O)c2)c1` [CBK155699]: the viability at 28.5 h, 10 µM was determined as 95.7%.

As for `COc1ccc(C2(NCc3cn(CC(N)=O)c4ccccc34)CC2)cc1` [CBK282833], the viability at 28.5 h, 10 µM came to 107%.

In the case of `N#Cc1ccccc1N1CCN(c2cncc(-c3cccs3)n2)CC1` [CBK065656], the viability at 28.5 h, 10 µM came out at 104%.

Consider `CCC1CCCCN1C(=O)c1nc2ccccc2s1` (stereo not drawn) [CBK076645], for which the viability at 28.5 h, 10 µM turned out to be 101%.

As to `COc1ccc(-c2c3c(nc4sc(C#N)c(N)c24)CCCC3)cc1` [CBK270279], the viability at 28.5 h, 10 µM was 80%.

Take `O=C(N[C@H]1CCN2C(=O)c3ccccc3NC(=O)[C@H]12)c1cccc(F)c1` [CBK289332]: the viability at 28.5 h, 10 µM came to 89.3%.

Take `O=C(NCc1ccccn1)Nc1cccc(Cl)c1` [CBK058569]: the viability at 28.5 h, 10 µM was 95.9%.

As to `Cc1c2c(n(-c3ccccc3)[n+]1[O-])NC1(CCC1)[C@@H]1C[C@@H](O)[C@@H](O)[C@H]21` [CBK303253], the viability at 28.5 h, 10 µM was 91.5%.

Regarding `COc1ccc(-n2ccn(C(=O)CCC3CCCC3)c2=O)cc1` [CBK106595], the viability at 28.5 h, 10 µM came to 90.4%.

Turning to `O=C(CC1c2ccccc2Oc2ccccc21)N1CCc2nc3ccccc3c(=O)n2CC1` [CBK286314], the viability at 28.5 h, 10 µM was 92.4%.

For `Cc1nc(-c2ccccc2)sc1CNC(=O)c1ccc([N+](=O)[O-])o1` [CBK092352], the viability at 28.5 h, 10 µM was found to be 54.8%.

With `Cc1nn(C)c(C)c1CCC(=O)N1CCc2ncc(Cl)cc2C1` [CBK284851], the viability at 28.5 h, 10 µM worked out at 114%.

Regarding `c1ccc([C@@H]2CN(Cc3cccnc3)C[C@H]2c2cc[nH]n2)cc1` [CBK285160], the viability at 28.5 h, 10 µM came out at 88.9%.

Turning to `CN1CCN(c2ccc3ccn(S(=O)(=O)c4ccccc4Br)c3n2)CC1` [CBK200019C], the viability at 28.5 h, 10 µM was 92.5%.

Take `COc1ccc(-c2ccc(N3CCN(CCN(C)C)CC3)nc2)cc1OC` [CBK036818]: the viability at 28.5 h, 10 µM was determined as 98.2%.

With `N/C(=N\OC(=O)COc1cccc2ccccc12)c1ccc(Cl)cc1` [CBK263004], the viability at 28.5 h, 10 µM turned out to be 88.4%.

For `CC(=O)c1cc(CN(C)C(C)c2ccncn2)cs1` (stereo not drawn) [CBK307470], the viability at 28.5 h, 10 µM was 85.5%.

Consider `O=S(=O)(Nc1cccc2cccnc12)c1cccs1` [CBK043904], for which the viability at 28.5 h, 10 µM was found to be 60.8%.

Regarding `CCOC(=O)C1CCN(S(=O)(=O)c2cccc3cccnc23)CC1` [CBK051242], the viability at 28.5 h, 10 µM came to 92.5%.

With `O=C(NCCN1CCC(O)(c2ccc(F)cc2)CC1)c1cccs1` [CBK283163], the viability at 28.5 h, 10 µM was determined as 91.5%.

For `N#CC1C(=S)NC2=C(CCCC2)C12CCCCC2` (stereo not drawn) [CBK288493], the viability at 28.5 h, 10 µM is 103%.

As to `Cc1ccc(C(=O)Nc2cccc(CCc3ccncc3)c2)c(=O)n1C` [CBK285556], the viability at 28.5 h, 10 µM was 84.4%.

As for `Cn1c(=O)c2[nH]c(-c3ccc(OCC(=O)NCCc4ccccc4)cc3)nc2n(C)c1=O` [CBK269092], the viability at 28.5 h, 10 µM turned out to be 97.9%.

Consider `COC(=O)c1cccn2cc(CN3CCOC4CCCCC43)nc12` (stereo not drawn) [CBK304949], for which the viability at 28.5 h, 10 µM amounted to 106%.

`Cc1ccc(-n2ncc3c(=O)n(CC(=O)Nc4ccc(C)cc4C)cnc32)cc1` [CBK287535]: the viability at 28.5 h, 10 µM stood at 83.4%.

With `CC(=O)N[C@@H](Cc1c[nH]cn1)C(=O)Nc1cc2ccccc2c(Br)n1` [CBK063302], the viability at 28.5 h, 10 µM came to 91.3%.
